Patent EP4494649A1, “PEPTIDES FOR USE IN THE TREATMENT OF AXONAL DAMAGE IN DIABETES” (Universität zu Köln, priority 2023, dated 2025)

Tests used:
[1] = test system: Cdk5-p35; conditions: embryonal neuronal cells; cited from earlier work
[2] = test system: Cdk5-p25; conditions: embryonal neuronal cells; cited from earlier work
[3] = test system: diabetic sciatic nerve; experiment: von Frey test, functional sensory recovery after SNC in diabetic mice; assay type: in vivo; conditions: i.p. daily 400 µg/kg from the day of SNC, Figure 1M
Method: (§1) The intrathecal application of anti-peptide against CDK5 (AP-CDK5) and P5 was performed with the above-described method to assess anatomical regeneration. Either 2 µl AP-CDK5 or P5 (each 4 mg/ml) or vehicle (DMSO) was injected the day before SNC and the day of SNC or the day of SNC and the day after. For analyses of functional recovery, AP-CDKS was injected daily at 400 µg/kg from the day of SNC until the mice were sacrificed. AP-CDKS and P5 (Genescript) were fused to a TAT-sequence for cell membrane penetration and had the following sequence: AP-CDKS: […] and (SEQ ID No. 3) P5: […] (SEQ ID No. 13).
Sensory recovery after SNC was determined at the indicated time points after SNC with the von Frey filament test as described in Gobrecht et al., 2014 and Gobrecht et al., (2016). Tests were performed at the same time of day by the same experimenter. Mice were placed on an elevated metal grid (pore size: 2 mm) and allowed to acclimate for 15 min before testing. […] Statistical significances of intergroup differences were evaluated using two-way ANOVA followed by the Holm Sidak post hoc test.
Figure 1H illustrates the timeline of experiments. […] After SNC, SSI and von Frey tests were assessed before the day of SNC, and days 1, 4, 7, 9, 14, 21, 28, and 35 thereafter.

[4] = test system: diabetic sciatic nerve; experiment: Static sciatic index (SSI), functional motor recovery after SNC in diabetic mice; assay type: in vivo
Method: as §1
Motor recovery after SNC was determined by calculating the SSI as described in Baptista AF et al., 2007, J Neurosci Methods 161, 259-264 and Gobrecht et al., Nature Communications 5, 1-10 (2014). […] Toe spreading on contralateral (C, left) and ipsilateral (I, right) sides relative to the SNC was assessed by measuring paw_length (PL) and the_distance between the first and fifth toe (FF). The SSI was then calculated using the previously described formula: SSI = 101.3((IFF-CFF)/CFF)-54.03((IPL-CPL)/CPL)-9.5 in as described in Baptista AF et al., 2007, J Neurosci Methods 161, 259-264.
Data represent mean SSI±SEM per experimental group. Statistical significances of intergroup differences were evaluated using two-way ANOVA followed by the Holm Sidak post hoc test. […]

[5] = test system: diabetic sciatic nerve; experiment: Anatomical axon regeneration after sciatic nerve crush (SNC) in streptozotocin-induced T1DM mice; assay type: in vivo; conditions: strep-induced T1DM mice, intrathecal injection 1 day prior and on the day of the SNC, 3 dpi
Method: (§2) To model type 1 diabetes mellitus (T1DM), male and female wild-type Ola received a single intraperitoneal injection of 100 mg/kg streptozotocin (strep) or vehicle (veh; 0.1 M citrate buffer, pH 4.5) at 4-6 weeks of age. The efficacy of the treatment was confirmed by assessing blood glucose levels 1 week after injection. Strep mice with over 250 mg/dl of blood glucose were considered diabetic. Thus, diabetes was induced 2 months before sciatic nerve crush.
All surgical procedures on mice adhered to respective animal care guidelines and were approved by the local authorities (LANUV Recklinghausen). For intrathecal AAV2.1 (CRMP2T514A-HA, GFP, tdTomato, and Cre-GFP: titer: ≥7·1012 vg/ml, Addgene), a 5 mm skin incision was made above the L4-L5 spines. The muscle tissue was carefully spread, and 2.5 µl of the viral solution was injected into the cerebrospinal fluid between the L4 and L5 spines using a Nanoject II injector (Drummond Scientific) with three consecutive 833 nl injections with a speed of 23 nl/s and 20 s intervals between injections. The skin was closed using 6-0 sutures. Transduction was performed 2 weeks before sciatic nerve crush (SNC). SNC was performed as described in Gobrecht et al., Nature Communications 5, 4561 (2014) and Gobrecht et al., (2016). In brief, animals were anesthetized by inhalation anaesthesia with 1.5% isoflurane in oxygen, and a skin incision of 5 mm was made above the gluteal region. […]
For assessment of anatomical regeneration, the sciatic nerves were isolated 3 days post-injury (dpi). […] Regeneration of sympathetic fibers was quantified with immunostaining against tyrosine hydroxylase (TH; Novus, 1:500; RRID:AB_10077691).
To verify the regeneration-stimulating effect of the peptide, axonal regeneration was determined in vivo. […] Anatomical regeneration was assessed 3 days post-injury (dpi).
To verify the regeneration-stimulating effect in vivo, axonal regeneration was determined. […] Anatomical regeneration was assessed 3 days post-injury (dpi).

[6] = test system: CRMP2; experiment: Inhibitory CRMP2 phosphorylation (pCRMP2^T514) in DRG of diabetic mice, Western blot and immunostaining; assay type: in vivo
Method: as §2
The intrathecal application of anti-peptide against CDK5 (AP-CDK5) and P5 was performed with the above-described method to assess anatomical regeneration. […]
DRG (L3-L5) or 3 mm of the sciatic nerves proximal to the injury site from three mice per group were homogenized by sonication in 100 µl lysis buffer (20 mM Tris-HCl pH 7.5, 10 mM KCl, 250 mM sucrose, 10 mM NaF, 1mM DTT, 0.1 mM Na3VO4, 1% Triton X-100, 0.1% SDS, 1% protease inhibitors (Merck Millipore) and phosphatase inhibitors (Roche)). […] All antibodies were detected with anti-rabbit or anti-mouse IgG secondary antibodies conjugated to HRP (1:80,000; Sigma). […]
[…] Antibodies were detected with anti-rabbit, anti-goat, or anti-mouse secondary antibodies conjugated to Dylight-405,_Alexa-594, or Alexa-488.
Figure 1H illustrates the timeline of experiments. […] After SNC, SSI and von Frey tests were assessed before the day of SNC, and days 1, 4, 7, 9, 14, 21, 28, and 35 thereafter. […]

Row | Sequence | activity of endogenous Cdk5-p35 [1] | deregulated Cdk5-p25 activity [2] | functional sensory recovery determined by the von Frey test [3] | functional motor recovery assessed by static sciatic index (SSI) ([4]; i.p. daily 400 µg/kg from the day of SNC, Figure 1L) | axon regeneration (pictures of the injured paw) ([4]; i.p. daily from SNC, before and 1, 7, 14, 21, 28, 35 dpi, Figure 1K) | anatomical regeneration of motor fibers ([5]; ChAT staining) | anatomical regeneration of sensory fibers ([5]; SCG10 staining) | anatomical regeneration of sympathetic fibers ([5]; TH staining) | CRMP2 inactivation in neurons (pCRMP2^T514 immunostaining) ([6]; DRG (L6), strep-treated mice, i.p. injection, tissue harvested after completing functional recovery, Figure 1N) | CRMP2 inactivation in DRG neurons (pCRMP2^T514 Western blot) ([6]; L4-L6 DRG, strep T1DM mice, i.p. every day from the SNC until sacrifice, Figures 1I, 1J)
1 | KEAFWDRCLSVINLMSSKMLQINA (listed as Homo sapiens) [p5] | did not affect | inhibited |  |  |  |  |  |  |  | 
2 | LVESCKEAFWDRCLSVINLMSSKMYARAARRAARR (REGION 1..35: note = Fusion peptide) [AP-CDK5] |  |  | provide a functional effect | provide a functional effect | accelerated | accelerated | accelerated | accelerated | strongly reduced | strongly reduced
